Assay results from US10112918B2, “15-oxospiramilactone derivatives, preparation method and uses thereof” (Kunming Institute of Botany, The Chinese Academy of Sciences, priority 2013, dated 2018).

Tested on: A-549 (Human lung adenocarcinoma cells)
Assay: MTT inhibition of tumor cell growth, A-549
Type: cell-based
Details: Homo sapiens, A549, 48 h
How it was run: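 48 h MTT growth assay, 37° C, triplicate wells. Seeding 5000-10000 cells/well in 10% FBS medium (DMEM or RPMI1640); primary screen 40 μM, then 5-point gradient. A595 after SDS solubilisation; IC50 by Reed and Muench two-point method.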

IC50 (Table 1, 7-hydroxy derivatives of S-3): 3.22 µM
IC50 (Table 2, derivatives having potential Michael reaction acceptor): 3.22 µM
IC50 (Table 3, single Michael reaction acceptor, modified lactonic ring): 3.22 µM
IC50 (Table 4, derivatives obtained by reduction of the lactonic ring): 3.22 µM
IC50 (Table 5, derivatives having double Michael reaction acceptor): 3.22 µM
IC50 (Table 7 (first), alkaloid derivatives): 3.22 µM
SMILES: C=C1C(=O)[C@]23CC[C@H]1CC2[C@@]12CCC[C@@](C)(COC1=O)C2C[C@H]3O (stereo partly drawn) [Compound 1, 15-oxospiramilactone]
